This is an account of results in paper PMC4690855 (Viruses, 2015).

Values joined by “and” are separate entries in the source; they are usually repeats but may differ in a detail not shown here. Equal values may be shown once. “Also recorded” adds a separate entry of the source. Where a name gives a salt, the structure may show the parent alone. Read-outs that look alike come from different tables or passages of the source.

Assay [1] deals with T1, double mutant (I54M, L90M) HIV-2 protease (Human immunodeficiency virus type 2 subtype A, UniProt P04584, I567M/L603M).
T1 sequence (P04584 514-612 I567M/L603M): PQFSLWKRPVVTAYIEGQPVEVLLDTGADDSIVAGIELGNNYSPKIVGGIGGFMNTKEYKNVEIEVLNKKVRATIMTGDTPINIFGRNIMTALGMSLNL
Briefly: In vitro enzymatic (HPLC) inhibition assay, double mutant protease. The class given is biochemical.

Assay [2] relates to HIV-2 vectors harboring the double mutation (I54M, L90M). The assay can be described thus: Cell culture inhibition profiling, HIV-2 vector harboring the double mutation. The class given is cell-based. To be noted: for IC50: transfected 293T cells, 3 days, RT activity in medium, triplicate, mean ± SD, read-out: IC50 Double Mutant (I54M, L90M) (cell culture); for Fold Increase (IC50, cell culture): IC50 double mutant versus wild-type; for Effect of I54M-L90M double mutation on IC50 in cell culture, in words: double mutant versus wild-type vector.

A further assay addresses wild-type HIV-2 protease (Human immunodeficiency virus type 2 subtype A, UniProt P04584). Briefly: In vitro enzymatic (HPLC) inhibition assay, wild-type protease. The class given is biochemical.
In assay [3] the test system is double mutant (I54M, L90M) HIV-2 protease. The assay can be described thus: In vitro enzymatic (HPLC) inhibition assay, double mutant protease. The class given is biochemical. To be noted: for Fold Increase (Ki): Ki double mutant versus wild-type.
A further assay concerns wild-type HIV-2 vectors. The assay can be described thus: Cell culture inhibition profiling, wild-type HIV-2 vector. The class given is cell-based. To be noted: transfected 293T cells, 3 days, RT activity in medium, triplicate, mean ± SD.
Where [4] appears, read: Human immunodeficiency virus 2, HEK-293T, 72 h.
[5] abbreviates: HPLC, oligopeptide substrate, pH 5.6, 37 °C 1 h, triplicate, mean ± SD, read-out: IC50 Wild-Type.
Where [6] appears, read: calculated from IC50 by Ki = (IC50 − E/2)/(S/Km + 1), mean ± SD, read-out: Ki Wild-Type.

wild-type HIV-2 protease, sequence (P04584 514-612 limits assumed): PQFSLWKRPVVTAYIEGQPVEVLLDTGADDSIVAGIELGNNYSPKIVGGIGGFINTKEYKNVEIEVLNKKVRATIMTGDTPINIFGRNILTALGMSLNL

For `CC(C)CN(C[C@@H](O)[C@H](Cc1ccccc1)NC(=O)O[C@H]1CCOC1)S(=O)(=O)c1ccc(N)cc1` [Amprenavir], the results for the IC50 in assay [1] and in assay [2] (setting [4]) were 152 ± 9 nM and > 100000 nM, respectively.

Regarding `COC(=O)N[C@H](C(=O)N[C@@H](Cc1ccccc1)[C@@H](O)CN(Cc1ccc(-c2ccccn2)cc1)NC(=O)[C@@H](NC(=O)OC)C(C)(C)C)C(C)(C)C.O=S(=O)(O)O` [Atazanavir sulfate, atazanavir sulfate], the Ki – broadly, the dissociation constant of the complex between target and ligand, obtained from inhibition or displacement – at wild-type HIV-2 protease (wild-type protease, read-out: Ki Wild-Type (as printed in text in μM)) worked out at 0.09 ± 0.03 nM. Further, the “Fold Increase (Ki)” value in assay [3] is “more than 10 fold”. Besides, the midpoint of inhibition with wild-type HIV-2 vectors, the IC50, lay at 5900 ± 500 nM. For the same compound, in assay [2], the “Fold Increase (IC50, cell culture)” value is given as 4.8 fold; the “Effect of I54M-L90M double mutation on IC50 in cell culture, in words” value (shortened to “Effect of I54M-L90M double mutation”) is recorded as “significant IC50 increase”; the IC50 (usually the concentration at which inhibition is half-maximal) came out at 28600 ± 350 nM.

As for `COC(=O)N[C@H](C(=O)N[C@@H](Cc1ccccc1)[C@@H](O)CN(Cc1ccc(-c2ccccn2)cc1)NC(=O)[C@@H](NC(=O)OC)C(C)(C)C)C(C)(C)C` [Atazanavir], the IC50 at wild-type HIV-2 protease (setting [5]) is 3.34 ± 1 nM; in assay [1] it was 10.9 ± 0.2 nM. Besides, at wild-type HIV-2 protease (setting [6]), the Ki was 0.09 ± 0.03 nM. Besides, the “Fold Increase (Ki)” value in assay [3] worked out at 16.6 fold.

On to `CC(C)CN(C[C@@H](O)[C@H](Cc1ccccc1)NC(=O)O[C@H]1CO[C@H]2OCC[C@H]21)S(=O)(=O)c1ccc(N)cc1` [Darunavir], for which the results for the IC50 (against wild-type HIV-2 protease; in assay [1]; in assay [2] (setting [4])) were 1.76 ± 0.1 nM, 8.14 ± 1.3 nM and 18700 ± 1600 nM, respectively. Moreover, the Ki on wild-type HIV-2 protease (Ki Wild-Type, calculated from IC50 by Ki = (IC50 − E/2)/(S/Km + 1), mean ± SD) was 0.05 ± 0.005 nM. Also, the results for the “Fold Increase (Ki)” value in assay [3] and in assay [3] (listed as darunavir) were 22.2 fold and > 20 fold, respectively. Further, the “Fold Increase (IC50, cell culture)” value in assay [2] is 44.5 fold; in assay [2] (listed as darunavir) it was > 40 fold.

Turning to `CC(C)(C)NC(=O)[C@@H]1CN(Cc2cccnc2)CCN1C[C@@H](O)C[C@@H](Cc1ccccc1)C(=O)N[C@H]1c2ccccc2C[C@H]1O` [Indinavir sulfate, indinavir sulfate], on wild-type HIV-2 protease (setting [6]), the Ki was 0.03 nM. The “Fold Increase (Ki)” value in assay [3] was “more than 10 fold”. For the same compound, the IC50 in assay [2] (setting [4]) amounted to 16500 ± 2100 nM. The “Fold Increase (IC50, cell culture)” value is reported as 11.7 fold in assay [2] and > 10 fold in assay [2] (listed as indinavir sulfate).

In the case of `CC(C)(C)NC(=O)[C@@H]1CN(Cc2cccnc2)CCN1C[C@@H](O)C[C@@H](Cc1ccccc1)C(=O)N[C@H]1c2ccccc2C[C@H]1O` [Indinavir], the IC50 on wild-type HIV-2 protease (setting [5]) worked out at 1.3 ± 0.5 nM; in assay [1] it was 2.6 ± 1.4 nM. The “Fold Increase (Ki)” value in assay [3] was determined as 12 fold.

Regarding `Cc1cccc(C)c1OCC(=O)N[C@@H](Cc1ccccc1)[C@@H](O)C[C@H](Cc1ccccc1)NC(=O)[C@H](C(C)C)N1CCCNC1=O` [Lopinavir], the results for the IC50 (at wild-type HIV-2 protease (setting [5]); in assay [1]; in assay [2] (setting [4])) were 1.18 ± 0.1 nM, 2.32 ± 0.1 nM and 3100 ± 1100 nM, respectively. Also, the Ki on wild-type HIV-2 protease (setting [6]) was 0.03 ± 0.001 nM. Further, the “Fold Increase (Ki)” value in assay [3] is 10.6 fold; in assay [3] (listed as lopinavir), “more than 10 fold”. In addition, the entries for the “Fold Increase (IC50, cell culture)” value in assay [2] and in assay [2] (listed as lopinavir) were 20.6 fold and > 20 fold, respectively.

As for `Cc1c(O)cccc1C(=O)N[C@@H](CSc1ccccc1)[C@H](O)CN1C[C@H]2CCCC[C@H]2C[C@H]1C(=O)NC(C)(C)C` [Nelfinavir], the IC50 on wild-type HIV-2 protease (setting [5]) came out at 38 ± 10 nM; in assay [1], 190 ± 14.5 nM; in assay [2] (setting [4]), 5100 ± 1700 nM. In addition, the Ki at wild-type HIV-2 protease (setting [6]) was 1 nM and 1.01 nM. Moreover, the “Fold Increase (Ki)” value in assay [3] is 26 fold; in assay [3] (listed as nelfinavir), > 20 fold. Besides, the “Fold Increase (IC50, cell culture)” value in assay [2] amounted to 1.8 fold. In addition, in assay [2], the “Effect of I54M-L90M double mutation” value is given as “significant IC50 increase”.

With `CC(C)c1nc(CN(C)C(=O)N[C@H](C(=O)N[C@@H](Cc2ccccc2)C[C@H](O)[C@H](Cc2ccccc2)NC(=O)OCc2cncs2)C(C)C)cs1` [Ritonavir], in assay [2] (setting [4]), the IC50 is 14500 ± 300 nM.

As for `CC(C)(C)NC(=O)[C@@H]1C[C@@H]2CCCC[C@@H]2CN1C[C@@H](O)[C@H](Cc1ccccc1)NC(=O)[C@H](CC(N)=O)NC(=O)c1ccc2ccccc2n1` [Saquinavir], the IC50 on wild-type HIV-2 protease (setting [5]) stood at 3.42 ± 0.1 nM; in assay [1] it was 14.1 ± 1.7 nM; in assay [2] (setting [4]) it was 3500 ± 1200 nM. Also, the inhibition constant Ki at wild-type HIV-2 protease (setting [6]) is 0.09 ± 0.001 nM. The “Fold Increase (Ki)” value in assay [3] is recorded as 21.4 fold; in assay [3] (listed as saquinavir) it was > 20 fold. Further, the “Fold Increase (IC50, cell culture)” value in assay [2] worked out at 2.7 fold. For the same compound, the “Effect of I54M-L90M double mutation” value in assay [2] is recorded as “significant IC50 increase”.

Consider `CCC[C@@]1(CCc2ccccc2)CC(O)=C([C@H](CC)c2cccc(NS(=O)(=O)c3ccc(C(F)(F)F)cn3)c2)C(=O)O1` [Tipranavir], for which the IC50 at wild-type HIV-2 protease (setting [5]) came to 50 ± 2 nM; in assay [1], 4.8 ± 1.6 nM; in assay [2] (setting [4]), 5800 ± 1700 nM. Besides, the Ki on wild-type HIV-2 protease (setting [6]) is 1.3 nM and 1.31 nM. Further, the “Fold Increase (Ki)” value in assay [3] is on record as 0.5 fold. For the same compound, the “Effect of I54M, L90M double mutation on inhibitor efficacy (enzymatic), in words” value in assay [3] (double mutant versus wild-type protease) was “remained indifferent to the mutations; also recorded: did not observe a significant increase in Ki”. In assay [2], the “Fold Increase (IC50, cell culture)” value was determined as 1.5 fold. Also, the “Effect of I54M-L90M double mutation” value in assay [2] is listed as “did not have an effect”.
